Key:
Fgfr3^Y367C/+ mice = assay: Dwarfism mouse model, X-rays analysis of skeleton and body growth; type: in vivo; settings: 10 days
Protocol: The effectiveness of PD173074 and BGJ-398 in attenuating the dwarfism phenotype of Fgfr3^Y367C/+ mice was assessed in viva. The mice were seven days of age at treatment initiation and received daily subcutaneous administration of 4.00 mg/kg PD173074 or of 1.66 mg/kg BGJ-398 for 10 days.
The effectiveness of PD173074 in attenuating the dwarfism phenotype of Fgfr3^Y367C/+ mice was assessed in vivo. The mice were seven days of age at treatment initiation and received daily subcutaneous administrations of 4.00 mg/kg of PD173074 for 10 days.
Seven days old mice received daily subcutaneous administrations of 1.66 mg/kg of BGJ-398 for 10 days.

Fgfr3^Y367C/+ femurs = assay: Ex vivo culture of E16.5 embryonic femur explants, bone length; type: cell-based, mouse; settings: for gain in femur length: Fgfr3^Y367C/+ femurs
Protocol: Six sets of ex vivo experiments were performed. Femur embryos at day E16.5 from WT (n=6) and Fgfr3^Y367C/+ (n=6) mice were used and incubated for 5 days in DMEM medium with antibiotics and 0.2% BSA (Sigma) supplemented with A31 or PD173074 (as control) at a concentration of 2 mM. Right femur was cultured in supplemented medium and compared with the left one cultured in control medium. Rib cage from E16.5 WT and Fgfr3^Y367C/+ mice embryos were isolated and stripped of all soft tissues. Primary chondrocytes were obtained from rib cages. The ribs were incubated in a pronase solution (Roche; 2 mg/ml) followed by a digestion in Collagenase A (Roche; 3 mg/ml) at 37° C. Isolated chondrocytes were plated out at a density of 2.105 cells in 6-well plates containing DMEM supplemented with 10% FCS and antibiotics, and were allowed to reach subconfluency. Cultures were supplemented with A31 or PD173074 (as control) at a concentration of 2 mM. Cells were treated with A31 (2 mM) PD173074 (as control) in serum-free DMEM supplemented with 0.2% BSA and harvested after 24 h. To establish the effect of the inhibitors, the right femur was cultured in supplemented medium and compared with the left one cultured in control medium The bone length was measured at the beginning (before treatment) and at the end of time course. Each experiment was repeated at least three times. The genotype of WT, Fgfr3^Y367C/+ and Fgfr3^−/− mice were determined by PCR of tail DNA as previously described (Pannier et al., Biochim Biophys Acta, 1792: 140-147, 2009). All experimental procedures and protocols were approved by the Animal Care and Use Committee.
Fgfr3^Y367C/+ mice display reduced length of long bones, broad femurs, a narrow trunk, short ribs and a slightly dome-shaped skull, closely resembling achondroplasia (FIGS. 3A and B). The inventors analyzed the effects of A31 on endochondral ossification in Fgfr3^Y367C/+ mice by using an ex vivo culture system for embryonic day 16.5 (E16.5) limb explants. […] After 5 days of culture, the increase in length of the treated mutant femurs was 2.6 times more than for that of WT.
Thus, embryonic femur explants were co-incubated with 150 nM of PD173074 for 5 days.
Embryonic femur explants were co-incubated 100 nM (10^−7M) or 1 μM (10^−6M) of BGJ-398 for 6 days.

[1] = tested on: Fgfr3^Y367C/+ growth plate; assay: Histology of cultured femur growth plate (HES staining, type X collagen in situ hybridization); type: cell-based, mouse
Protocol: Limb explants were fixed after culture in 4% paraformaldehyde at 4° C., and placed in a staining solution for 45-60 minutes (0.05% Alizarin Red, 0.015% Alcian Blue, 5% acetic acid in 70% ethanol) or embedded in paraffin. Serial […] were stained with Hematoxylin-Eosin using standard protocols for histological analysis or were subjected to in situ hybridization or immunohistochemical staining. In situ hybridization using [S35]-UTP labeled antisense ribopropes for collagen X was carried out as previously described (Delezoide et al., Hum Mol Genet, 6, 1899-1906, 1997). Sections were counterstained with Hematoxylin. For immunohistochemistry, sections were stained with antibodies specific to FGFR3 (1:250 dilution; Sigma), anti PCNA (1:1000 dilution; Abcam), anti-KI67 (1:300; Abcam), anti-cyclin D1 (1:80 dilution; Santa Cruz) and anti-p57 (1:100 dilution; Santa Cruz) using the Dako Envision kit. Images were captured with an Olympus PD70-IX2-UCB microscope. […] The inventors evaluated the impact of A31 on the growth plate (FIG. 4A). […] Histological examinations using HES staining (FIG. 10A) and type X collagen labeling (FIG. 10B) were also carried out.

[2] = tested on: FGFR3Y373C, FGFR3K650E, FGFR3K650M, FGFR3G380R; assay: Constitutive FGFR3 phosphorylation in HEK-293 cells transiently expressing activated FGFR3; type: cell-based, human; settings: 10 μM, data not shown

Compound	dwarfism phenotype (X-rays) (Fgfr3^Y367C/+ mice; BGJ-398 1.66 mg/kg daily subcutaneous, from 7 days of age)	femur size over concentration (in words) (Fgfr3^Y367C/+ femurs; BGJ-398 100 nM to 1 μM, 6 days)	gain in femur length (Fgfr3^Y367C/+ femurs; BGJ-398 100 nM, 6 days) [%]	chondrocyte morphology (HES staining) ([1]; BGJ-398 10^−6M)	size of the hypertrophic zone of the femur explants ([1]; BGJ-398, Fgfr3^Y367C/+ femur explants)	type X collagen expression (in situ hybridization) ([1]; BGJ-398, Fgfr3^Y367C/+ growth plate)	constitutive FGFR3 receptor phosphorylation [2]	body size (Fgfr3^Y367C/+ mice; PD173074 4.00 mg/kg daily subcutaneous)	dwarfism phenotype (X-rays, clinical features) (Fgfr3^Y367C/+ mice; PD173074 4.00 mg/kg daily subcutaneous, from 7 days of age)	gain in femur length (Fgfr3^Y367C/+ femurs; PD173074 150 nM, 5 days) [%]
CCN1CCN(c2ccc(Nc3cc(N(C)C(=O)Nc4c(Cl)c(OC)cc(OC)c4Cl)ncn3)cc2)CC1 [BGJ-398, reference compound]	Dramatic phenotypic changes	concentration-dependent increase	71.86	larger and more spherical	increases	enhanced type X collagen expression	abolished receptor phosphorylation	–	–	–
CCN(CC)CCCCNc1ncc2cc(-c3cc(OC)cc(OC)c3)c(NC(=O)NC(C)(C)C)nc2n1 [PD173074]	–	–	–	–	–	–	–	overall increase in body size	Amelioration in key relevant achondroplasia clinical features	77
